From US6838468B2, “4-(phenyl-piperdin-4-ylidene methyl)-benzamide derivatives and their use for the treatment of pain, anxiety or gastrointestinal disorders” (AstraZeneca AB, priority 2001, dated 2005)

Experiments:
cloned human δ receptor [1] = target: T1, cloned human δ receptor (Homo sapiens, UniProt P41143); test: Binding assay, membranes of human 293S cells expressing cloned human δ receptor (HDELTA); conditions: radioligand displacement
T1 construct: expressed in transfected cells; host or cells: human 293S (HEK-293S) cells, geneticin-selected
T1 sequence (P41143 whole entry): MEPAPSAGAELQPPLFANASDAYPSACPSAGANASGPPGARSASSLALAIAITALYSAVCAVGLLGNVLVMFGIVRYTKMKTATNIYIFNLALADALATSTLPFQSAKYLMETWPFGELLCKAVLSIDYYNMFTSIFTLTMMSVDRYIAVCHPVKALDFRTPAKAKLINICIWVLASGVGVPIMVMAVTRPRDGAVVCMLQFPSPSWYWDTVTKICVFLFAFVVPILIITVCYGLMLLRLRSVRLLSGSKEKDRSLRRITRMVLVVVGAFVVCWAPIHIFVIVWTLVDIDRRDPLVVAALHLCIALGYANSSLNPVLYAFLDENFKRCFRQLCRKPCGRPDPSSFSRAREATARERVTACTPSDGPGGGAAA

cloned human δ receptor [2] = target: T1, cloned human δ receptor; test: GTP[γ]35S binding functional assay, HEK-293S membranes expressing cloned human δ receptor (HDELTA); type: biochemical
Procedure: (§1) • A. Human 293S cells expressing cloned human μ, δ, and κ receptors and neomycin resistance were grown in suspension at 37° C. and 5% CO2 in shaker flasks containing calcium-free DMEM10% FBS, 5% BCS, 0.1% Pluronic F-68, and 600 μg/ml geneticin. • B. Mouse and rat brains were weighed and rinsed in ice-cold PBS (containing 2.5 mM EDTA, pH 7.4). The brains were homogenized with a polytron for 15 sec (mouse) or 30 sec (rat) in ice-cold lysis buffer (50 mM Tris, pH 7.0, 2.5 mM EDTA, with phenylmethylsulfonyl fluoride added just prior use to […] from a 0.5M stock in DMSO:ethanol). Membrane Preparation
Cells were pelleted and resuspended in lysis buffer (50 mM Tris, pH 7.0, 2.5 mM EDTA, with PMSF added just prior to use to 0.1 mM from a 0.1 M stock in ethanol), incubated on ice for 15 min, then homogenized with a polytron for 30 sec. The suspension was spun at 1000 g (max) for 10 min at 4° C. The supernatant was saved on ice and the pellets resuspended and spun as before. The supernatants from both spins were combined and spun at 46,000 g(max) for 30 min. The pellets were resuspended in cold Tris buffer (50 mM Tris/Cl, pH 7.0) and spun again. The final pellets were resuspended in membrane buffer (50 mM Tris, 0.32 M sucrose, pH 7.0). Aliquots (1 ml) in polypropylene tubes were frozen in dry ice/ethanol and stored at −70° C. until use. The protein concentrations were determined by a modified Lowry assay with sodium dodecyl sulfate.
(§2) The agonist activity of the compounds is measured by determining the degree to which the compounds receptor complex activates the binding of GTP to G-proteins to which the receptors are coupled. In the GTP binding assay, GTP[γ]^35S is combined with test compounds and membranes from HEK-293S cells expressing the cloned human opioid receptors or from homogenised rat and mouse brain. Agonists stimulate GTP[γ]^35S binding in these membranes. The EC50 and Emax values of compounds are determined from dose-response curves. Right shifts of the dose response curve by the delta antagonist naltrindole are performed to verify that agonist activity is mediated through delta receptors.

[3] = target: T2, delta receptors, rat brain membranes (Rattus norvegicus, UniProt P33533); test: GTP[γ]35S binding functional assay, rat brain membranes; type: biochemical; conditions: GTPγ35S binding, maximal stimulated binding with 3 μM SNC-80
T2 construct: Rat brain membranes are thawed at 37° C; from tissue; host or cells: rat brain membranes
T2 sequence (P33533 whole entry): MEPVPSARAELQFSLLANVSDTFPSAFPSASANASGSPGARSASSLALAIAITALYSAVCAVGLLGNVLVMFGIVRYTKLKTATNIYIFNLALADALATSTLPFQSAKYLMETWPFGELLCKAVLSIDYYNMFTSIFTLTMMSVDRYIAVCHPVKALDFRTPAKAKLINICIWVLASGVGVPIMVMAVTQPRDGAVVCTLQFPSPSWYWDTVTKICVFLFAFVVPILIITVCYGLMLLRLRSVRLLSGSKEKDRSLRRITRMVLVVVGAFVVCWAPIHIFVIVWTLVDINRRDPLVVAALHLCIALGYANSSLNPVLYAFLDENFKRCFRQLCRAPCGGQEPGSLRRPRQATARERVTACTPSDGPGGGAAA
Procedure: as §1, §2
Rat brain membranes are thawed at 37° C., passed 3 times through a 25-gauge blunt-end needle and diluted in the GTPγS binding (50 mM Hepes, 20 mM NaOH, 100 mM NaCl, 1 mM EDTA, 5 mM MgCl2, pH 7.4, Add fresh: 1 mM DTT, 0.1% BSA). 120 μM GDP final is added membranes dilutions. […] The basal and maximal stimulated binding are determined in absence and presence of 3 μM SNC-80

[4] = target: T3, delta receptors, mouse brain membranes (Mus musculus, UniProt P32300); test: GTP[γ]35S binding functional assay, mouse brain membranes; type: biochemical
T3 construct: from tissue; host or cells: mouse brain membranes
T3 sequence (P32300 whole entry): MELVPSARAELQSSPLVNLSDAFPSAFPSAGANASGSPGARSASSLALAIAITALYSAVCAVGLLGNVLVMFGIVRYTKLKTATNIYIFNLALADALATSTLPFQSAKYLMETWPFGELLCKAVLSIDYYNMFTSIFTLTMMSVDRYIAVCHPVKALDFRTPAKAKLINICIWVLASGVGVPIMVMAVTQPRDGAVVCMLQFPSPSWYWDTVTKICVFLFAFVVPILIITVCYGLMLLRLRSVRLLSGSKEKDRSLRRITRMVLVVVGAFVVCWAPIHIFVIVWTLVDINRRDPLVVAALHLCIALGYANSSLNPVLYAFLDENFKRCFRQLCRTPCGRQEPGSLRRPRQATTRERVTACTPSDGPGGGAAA
Procedure: as §1, §2

In the case of CC(C)N(C(=O)c1ccc(C(=C2CCN(Cc3ccccc3)CC2)c2cccc3cccnc23)cc1)C(C)C [Example 1, 4-[1-(1-Benzyl-piperidin-4-ylidene)-1-quinolin-8-yl-methyl]-N,N-diisopropyl-benzamide], the IC50 (cloned human δ receptor [1]) is reported as 0.78 to 5 nM, the Emax (cloned human δ receptor [2]) is reported as 96 to 102% and the Emax [3] is reported as 97 to 144%. For the same compound, the Emax [4] was 100 to 151%.

For CC(C)N(C(=O)c1ccc(C(=C2CCN(Cc3ccccn3)CC2)c2cccc3cccnc23)cc1)C(C)C [Example 2, N,N-Diisopropyl-4-[1-(1-pyridin-2-ylmethyl-piperidin-4-ylidene)-1-quinolin-8-yl-methyl]-benzamide], the IC50 (cloned human δ receptor [1]) was 0.78 to 5 nM, the Emax (cloned human δ receptor [2]) was 96 to 102% and the Emax [3] was 97 to 144%. The Emax [4] was 100 to 151%.

Work on CC(C)N(C(=O)c1ccc(C(=C2CCN(Cc3ccncc3)CC2)c2cccc3cccnc23)cc1)C(C)C [Example 3, N,N-Diisopropyl-4-[1-(1-pyridin-4-ylmethyl-piperidin-4-ylidene)-1-quinolin-8-yl-methyl]-benzamide] yielded an IC50 (cloned human δ receptor [1]) of 0.78 to 5 nM, an Emax (cloned human δ receptor [2]) of 96 to 102% and an Emax [3] of 97 to 144%. The Emax [4] was 100 to 151%.

CC(C)N(C(=O)c1ccc(C(=C2CCN(Cc3cccs3)CC2)c2cccc3cccnc23)cc1)C(C)C [Example 4, N,N-Diisopropyl-4-[1-quinolin-8-yl-1-(1-thiophen-2-ylmethyl-piperidin-4-ylidene)-methyl]-benzamide] gave an IC50 (cloned human δ receptor [1]) of 0.78 to 5 nM, an Emax (cloned human δ receptor [2]) of 96 to 102% and an Emax [3] of 97 to 144%. The Emax [4] was 100 to 151%.

Compound CC(C)N(C(=O)c1ccc(C(=C2CCN(Cc3ccoc3)CC2)c2cccc3cccnc23)cc1)C(C)C [Example 6, N,N-Diisopropyl-4-[1-quinolin-8-yl-1-(1-furan-3-ylmethyl-piperidin-4-ylidene)-methyl]-benzamide] has an IC50 (cloned human δ receptor [1]) of 0.78 to 5 nM, an Emax (cloned human δ receptor [2]) of 96 to 102% and an Emax [3] of 97 to 144%. It also gave an Emax [4] of 100 to 151%.

With CC(C)N(C(=O)c1ccc(C(=C2CCN(Cc3ccco3)CC2)c2cccc3cccnc23)cc1)C(C)C [Example 7, N,N-Diisopropyl-4-[1-quinolin-8-yl-1-(1-furan-2-ylmethyl-piperidin-4-ylidene)-methyl]-benzamide] the IC50 (cloned human δ receptor [1]) was 0.78 to 5 nM, the Emax (cloned human δ receptor [2]) was 96 to 102% and the Emax [3] was 97 to 144%. It also gave an Emax [4] of 100 to 151%.

With COc1ccc(CN2CCC(=C(c3ccc(C(=O)N(C(C)C)C(C)C)cc3)c3cccc4cccnc34)CC2)cc1 [Example 8, N,N-Diisopropyl-4-{1-[1-(4-methoxy-benzyl)-piperidin-4-ylidene]-1-quinolin-8-yl-methyl}-benzamide] the IC50 (cloned human δ receptor [1]) was 0.78 to 5 nM, the Emax (cloned human δ receptor [2]) was 96 to 102% and the Emax [3] was 97 to 144%. The Emax [4] was 100 to 151%.

Work on CC(C)N(C(=O)c1ccc(C(=C2CCN(Cc3nccs3)CC2)c2cccc3cccnc23)cc1)C(C)C [Example 9, N,N-Diisopropyl-4-[1-quinolin-8-yl-1-(1-thiazol-2-ylmethyl-piperidin-4-ylidene)-methyl]-benzamide] yielded an IC50 (cloned human δ receptor [1]) of 0.78 to 5 nM, an Emax (cloned human δ receptor [2]) of 96 to 102% and an Emax [3] of 97 to 144%. It also gave an Emax [4] of 100 to 151%.

With CC(C)N(C(=O)c1ccc(C(=C2CCN(Cc3ncc[nH]3)CC2)c2cccc3cccnc23)cc1)C(C)C [Example 10, 4-{1-[1-(1H-Imidazol-2-ylmethyl)-piperidin-4-ylidene]-1-quinolin-8-yl-methyl]-N,N-diisopropylbenzamide] the IC50 (cloned human δ receptor [1]) was 0.78 to 5 nM, the Emax (cloned human δ receptor [2]) was 96 to 102% and the Emax [3] was 97 to 144%. It also gave an Emax [4] of 100 to 151%.

For CC(C)N(C(=O)c1ccc(C(=C2CCN(Cc3ccc(Br)cc3)CC2)c2cccc3cccnc23)cc1)C(C)C [Example 11], the IC50 (cloned human δ receptor [1]) was 0.78 to 5 nM, the Emax (cloned human δ receptor [2]) was 96 to 102% and the Emax [3] was 97 to 144%. For the same compound, the Emax [4] was 100 to 151%.
